Patent publication US6451844B1, “Use of menthyl-2 pyrrolidone-5-carboxylate as an insect repellent” (Quest International BV, priority 1998, dated 2002)

System: Aedes aegypti
Test: Insect repellency test (mosquitoes attempting to bite treated warmed membrane targets)
Format: in vivo
Conditions: for % Repellency initially / % Repellency After 1 Hour: neat compound, 30 microlitres on membrane, 27° C.; for % Repellency initially: 10 minute period directly after application; for % Repellency After 1 Hour: 10 minute period one hour after application
Protocol: Four test chambers were prepared using 300 mm 200 gauge […] tubing. The synthetic plastics tubing was attached to oblong stainless steel frames (150 mm by 150 mm by 900 mm) using double-sided adhesive tape. 200 mm squares of cotton netting were used to cover the ends of the chambers and were secured using adhesive tape. Mosquitoes (naive insects of the species Aedes aegypti, 4 to 7 days old) were introduced into each chamber 8 and the chambers 8 were kept in a separate room until the test was ready to begin. The exhaust fan which vents the room in which the test was performed was switched on. Four targets 5 (only two shown) were prepared as follows: double layers of semi-porous membrane were stretched over the open ends of four open ended glassware bulbs (diameter of open end 43 mm) and secured using elastic bands. Testing was carried out at 27° C. The membranes were kept moist and warmed above the ambient temperature throughout the test by passing a supply of water ([…]) through the glassware bulbs, so as to contact the inner surface of the membranes. […] This was repeated with two other membranes and the fourth membrane was left untreated as a control. The chambers 8 containing the mosquitoes were positioned so that each chamber had one netting end pressed against one of the targets 5. Glass partitions in the form of a cross 6 were used to separate each target 5 and chamber end from its neighbour. […] The separation of the membranes ensured that air passing over a particular membrane would pass through only one test chamber 8. The filters 2, 3 were used to remove volatile elements from the air passing over the mosquitoes; filter 2 contained activated charcoal and filter 3 contained a molecular sieve (Union Carbide type 5A zeolite). The material in each filter 2, 3 was held within the cells of a 25 mm thick sheet of aluminium honeycomb sandwiched between two sheets of stainless steel mesh held in an aluminium frame. The filters 2,3 were bolted by their frames to the inside of an aluminium tunnel such that air passing along the tunnel passed through the filters 2, 3. […] An electronic timer was used to project the date and time onto the screen, and the video recorder 14 was used to record the data. The mosquitoes in the test chambers 8 were activated by introduction of a human breath stimulus upwind of the targets 5 and the number of insects attempting to bite each target 5 over the next ten minute period was recorded. After ten minutes, the recording was stopped and the test chambers 8 removed from their position immediately downwind of the targets 5. […] The numbers of mosquitoes attempting to bite each of the targets 5 was noted every 10 seconds throughout each ten minute recording period. The 60 readings were used to produce a figure for the mean number of insects biting each target 5 during the ten minute test periods. The reading obtained for the untreated target 5 was used to give a measure of the basic avidity of the mosquitoes used in the test and this was taken into account when analysing the results. […] The above lotions were tested for insect repellency using the method outlined in Example 1.

Row | Compound | insect repellent effectiveness (in words) (compared with hydrolysis product menthol, maintained for at least 1 hour after application to a substrate) | % Repellency initially | % Repellency After 1 Hour
1 | CC1CCC(C(C)C)C(OC(=O)C2CCC(=O)N2)C1 (stereo not shown) [Menthyl 2-pyrrolidone-5-carboxylate] | more effective insect repellent than its hydrolysis product, menthol | 80% | 59%
2 | CCN(CC)C(=O)c1cccc(C)c1 [DEET, N,N-diethyl-m-toluamide] | – | 93% | 75%
3 | CC1CCC(C(C)C)C(O)C1 (stereo not shown) [Menthol, menthol] | – | 49% | 25%
